Data published in patent US8618289B2 (Ambit Biosciences Corporation, priority 2008, dated 2013).

Columns and labels:
[1] = test system: MEK1 phosphorylation in the A375 human melanoma cell line; experiment: cells; details: A-375, read-out: pMEK IC50
A375 cells = experiment: cells; details: Homo sapiens, A-375, read-out: A375 Viability EC50
RAF kinases [2] = target: RAF kinases (Homo sapiens, UniProt P15056); experiment: biochemical
RAF kinases [3] = target: RAF kinases (Homo sapiens, UniProt P04049); experiment: biochemical
Chain of RAF kinases (Homo sapiens, UniProt P04049) (P04049 whole entry): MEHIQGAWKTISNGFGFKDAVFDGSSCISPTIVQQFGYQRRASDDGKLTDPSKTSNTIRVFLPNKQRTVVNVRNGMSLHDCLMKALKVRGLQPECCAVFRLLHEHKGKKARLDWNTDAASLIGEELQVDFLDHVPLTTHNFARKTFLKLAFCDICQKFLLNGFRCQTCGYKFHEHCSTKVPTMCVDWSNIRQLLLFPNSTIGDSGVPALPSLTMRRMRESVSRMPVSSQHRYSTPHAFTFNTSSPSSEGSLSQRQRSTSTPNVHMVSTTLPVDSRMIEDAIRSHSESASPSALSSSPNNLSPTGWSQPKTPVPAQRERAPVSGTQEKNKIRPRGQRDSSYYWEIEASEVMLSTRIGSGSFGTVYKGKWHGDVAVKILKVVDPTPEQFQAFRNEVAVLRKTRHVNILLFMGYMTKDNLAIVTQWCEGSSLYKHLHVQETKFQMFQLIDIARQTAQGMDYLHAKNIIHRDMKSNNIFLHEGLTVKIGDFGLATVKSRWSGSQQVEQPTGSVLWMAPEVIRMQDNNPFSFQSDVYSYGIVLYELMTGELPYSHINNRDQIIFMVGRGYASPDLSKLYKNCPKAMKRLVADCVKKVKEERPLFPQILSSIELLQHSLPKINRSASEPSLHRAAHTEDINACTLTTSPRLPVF

Chain of RAF kinases (Homo sapiens, UniProt P15056) (P15056 whole entry): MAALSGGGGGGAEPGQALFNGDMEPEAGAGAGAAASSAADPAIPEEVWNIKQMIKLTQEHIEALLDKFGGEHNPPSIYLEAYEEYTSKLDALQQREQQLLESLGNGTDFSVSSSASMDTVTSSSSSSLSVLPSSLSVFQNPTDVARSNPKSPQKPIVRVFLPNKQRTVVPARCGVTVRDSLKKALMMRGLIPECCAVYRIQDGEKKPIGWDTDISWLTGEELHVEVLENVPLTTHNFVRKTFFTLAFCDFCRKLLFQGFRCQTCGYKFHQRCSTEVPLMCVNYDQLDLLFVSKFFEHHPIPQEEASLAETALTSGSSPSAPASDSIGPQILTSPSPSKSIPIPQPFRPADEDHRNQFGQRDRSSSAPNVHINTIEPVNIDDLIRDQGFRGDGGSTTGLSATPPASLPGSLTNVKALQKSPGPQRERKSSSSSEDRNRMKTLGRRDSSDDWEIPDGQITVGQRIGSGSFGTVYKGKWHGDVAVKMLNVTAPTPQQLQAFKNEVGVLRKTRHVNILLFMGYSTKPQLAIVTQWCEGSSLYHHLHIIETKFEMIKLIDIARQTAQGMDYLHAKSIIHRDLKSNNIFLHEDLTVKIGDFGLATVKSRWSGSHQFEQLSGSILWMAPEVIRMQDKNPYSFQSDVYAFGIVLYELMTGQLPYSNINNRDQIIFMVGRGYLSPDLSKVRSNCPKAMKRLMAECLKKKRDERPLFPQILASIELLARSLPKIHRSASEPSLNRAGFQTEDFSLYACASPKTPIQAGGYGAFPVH

| SMILES | IC50 [1] [nM] | EC50 (A375 cells) [nM] | Kd (RAF kinases [2]) [nM] | Kd (RAF kinases [3]) [nM] |
| --- | --- | --- | --- | --- |
| COc1cc2ncnc(Oc3cccc(NC(=O)Nc4cc(C(C)(C)C)on4)c3)c2cc1OCCN1CCC(CO)CC1 [Ex 17, 1-(5-tert-butylisoxazol-3-yl)-3-(3-(6-(2-(4-(hydroxymethyl)piperidin-1-yl)ethoxy)-7-methoxyquinazolin-4-yloxy)phenyl)urea] | 250 to 500 | 250 to 500 | 500 to 1000 | 500 to 1000 |
| COc1cc2ncnc(Oc3cccc(NC(=O)Nc4cc(C(C)(C)C)on4)c3)c2cc1OCCN1CCN(C)CC1 [Ex 18, 1-(5-tert-butylisoxazol-3-yl)-3-(3-(7-methoxy-6-(2-(4-methylpiperazin-1-yl)ethoxy)quinazolin-4-yloxy)phenyl)urea] | < 250 | 250 to 500 | 250 to 500 | 500 to 1000 |
| COc1cc2ncnc(Oc3cccc(NC(=O)Nc4cc(C(C)(C)C)on4)c3)c2cc1OCCN1CCN(CCO)CC1 [Ex 19, 1-(5-tert-butylisoxazol-3-yl)-3-(3-(6-(2-(4-(2-hydroxyethyl)piperazin-1-yl)ethoxy)-7-methoxyquinazolin-4-yloxy)phenyl)urea] | < 250 | 250 to 500 | 250 to 500 | 250 to 500 |
| COc1cc2ncnc(Oc3cccc(NC(=O)Nc4cc(C(C)(C)C)on4)c3)c2cc1OCCN1CCOCC1 [Ex 20, 1-(5-tert-butylisoxazol-3-yl)-3-(3-(7-methoxy-6-(2-morpholinoethoxy)quinazolin-4-yloxy)phenyl)urea] | < 250 | < 250 | 250 to 500 | 250 to 500 |
| COc1cc2ncnc(Oc3cccc(NC(=O)Nc4cc(C(C)(C)C)on4)c3)c2cc1OCCCN1CCN(C)CC1 [Ex 21, 1-(5-tert-butylisoxazol-3-yl)-3-(3-(7-methoxy-6-(3-(4-methylpiperazin-1-yl)propoxy)quinazolin-4-yloxy)phenyl)urea] | < 250 | 250 to 500 | 250 to 500 | 250 to 500 |
| COc1cc2ncnc(Oc3cccc(NC(=O)Nc4cc(C(C)(C)C)on4)c3)c2cc1OCCCN1CCCCC1 [Ex 23, 1-(5-tert-butylisoxazol-3-yl)-3-(3-(7-methoxy-6-(3-(piperidin-1-yl)propoxy)quinazolin-4-yloxy)phenyl)urea] | < 250 | 500 to 1000 | 500 to 1000 | 500 to 1000 |
| COc1cc2ncnc(Oc3cccc(NC(=O)Nc4cc(C(C)(C)C)on4)c3)c2cc1OCCCN1CCC(CO)CC1 [Ex 24, 1-(5-tert-butylisoxazol-3-yl)-3-(3-(6-(3-(4-(hydroxymethyl)piperidin-1-yl)propoxy)-7-methoxyquinazolin-4-yloxy)phenyl)urea] | < 250 | 500 to 1000 | 500 to 1000 | 500 to 1000 |
| COc1cc2ncnc(Oc3cccc(NC(=O)Nc4cc(C(C)(C)C)on4)c3)c2cc1OCCCN1CCN(S(C)(=O)=O)CC1 [Ex 25, 1-(5-tert-butylisoxazol-3-yl)-3-(3-(7-methoxy-6-(3-(4-(methylsulfonyl)piperazin-1-yl)propoxy)quinazolin-4-yloxy)phenyl)urea] | < 250 | < 250 | 250 to 500 | 250 to 500 |
| COc1cc2c(Oc3cccc(NC(=O)Nc4cc(C(C)(C)C)on4)c3)ncnc2cc1OCCCN1CCOCC1 [Ex 27, 1-(5-tert-butylisoxazol-3-yl)-3-(3-(6-methoxy-7-(3-morpholinopropoxy)quinazolin-4-yloxy)phenyl)urea] | < 250 | < 250 | 250 to 500 | 250 to 500 |
| COc1cc2c(Oc3cccc(NC(=O)Nc4cc(C(C)(C)C)on4)c3)ncnc2cc1OCCCN1CCC(CO)CC1 [Ex 29] | < 250 | < 250 | 250 to 500 | 250 to 500 |
| COc1cc2c(Oc3cccc(NC(=O)Nc4cc(C(C)(C)C)on4)c3)ncnc2cc1OCCCN1CCC(O)C1 (stereo not shown) [Ex 31, 1-(5-tert-butyl-isoxazol-3-yl)-3-(3-{7-[3-(3-hydroxy-pyrrolidin-1-yl)-propoxy]-6-methoxy-quinazolin-4-yloxy}-phenyl)-urea] | < 250 | < 250 | 250 to 500 | 250 to 500 |
| COc1cc2c(Oc3cccc(NC(=O)Nc4cc(C(C)(C)C)on4)c3)ncnc2cc1OCCCN1CCN(S(C)(=O)=O)CC1 [Ex 32, 1-(5-tert-butylisoxazol-3-yl)-3-(3-(6-methoxy-7-(3-(4-(methylsulfonyl)piperazin-1-yl)propoxy)quinazolin-4-yloxy)phenyl)urea] | < 250 | 250 to 500 | 500 to 1000 | 250 to 500 |
| COc1cc2c(Oc3cccc(NC(=O)Nc4cc(C(C)(C)C)on4)c3)ncnc2cc1OCCCN1CC[C@H](O)C1 [Ex 33, (S)-1-(5-tert-butylisoxazol-3-yl)-3-(3-(7-(3-(3-hydroxypyrrolidin-1-yl)propoxy)-6-methoxyquinazolin-4-yloxy)phenyl)urea] | < 250 | < 250 | 250 to 500 | 250 to 500 |
| COc1cc2c(Oc3cccc(NC(=O)Nc4cc(C(C)(C)C)on4)c3)ncnc2cc1OCCCN1CC[C@@H](O)C1 [Ex 34, (R)-1-(5-tert-Butylisoxazol-3-yl)-3-(3-(7-(3-(3-hydroxypyrrolidin-1-yl)propoxy)-6-methoxyquinazolin-4-yloxy)phenyl)urea] | < 250 | > 1000 | 250 to 500 | 250 to 500 |
| COc1cc2c(Oc3cccc(NC(=O)Nc4cc(C(C)(C)C)on4)c3)ncnc2cc1OCCN1CCOCC1 [Ex 35, 1-(5-tert-butylisoxazol-3-yl)-3-(3-(6-methoxy-7-(2-morpholinoethoxy)quinazolin-4-yloxy)phenyl)urea] | < 250 | 500 to 1000 | 250 to 500 | 250 to 500 |
| COc1cc2c(Oc3cccc(NC(=O)Nc4cc(C(C)(C)C)on4)c3)ncnc2cc1OCCN1CCN(C)CC1 [Ex 36, 1-(5-tert-butylisoxazol-3-yl)-3-(3-(6-methoxy-7-(2-(4-methylpiperazin-1-yl)ethoxy)quinazolin-4-yloxy)phenyl)urea] | < 250 | 250 to 500 | 250 to 500 | 250 to 500 |
| COc1cc2c(Oc3cccc(NC(=O)Nc4cc(C(C)(C)C)on4)c3)ncnc2cc1OCCN1CCC(CO)CC1 [Ex 37, 1-(5-tert-butyl-isoxazol-3-yl)-3-(3-{7-[2-(4-hydroxymethyl-piperidin-1-yl)-ethoxy]-6-methoxy-quinazolin-4-yloxy}-phenyl)-urea] | < 250 | 250 to 500 | 250 to 500 | 250 to 500 |
| COc1cc2c(Oc3cccc(NC(=O)Nc4cc(C(C)(C)C)on4)c3)ncnc2cc1OCCN1CCN(CCO)CC1 [Ex 38, 1-(5-tert-butylisoxazol-3-yl)-3-(3-(7-(2-(4-(2-hydroxyethyl)piperazin-1-yl)ethoxy)-6-methoxyquinazolin-4-yloxy)phenyl)urea] | < 250 | 250 to 500 | 250 to 500 | 250 to 500 |
| COc1cc2c(Oc3cccc(NC(=O)Nc4cc(C(C)(C)C)on4)c3)ncnc2cc1OCCN1CCS(=O)(=O)CC1 [Ex 39, 1-(5-tert-butyl-isoxazol-3-yl)-3-(3-{7-[2-(1,1-dioxo-116-thiomorpholin-4-yl)-ethoxy]-6-methoxy-quinazolin-4-yloxy}-phenyl)-urea] | < 250 | < 250 | 250 to 500 | 250 to 500 |
